{"source": "patent US20240382446A1", "about": "“METHOD FOR IMPROVING FEED INTAKE” (OREXA B.V., priority 2021, published 2024)", "key": {"[1]": {"assay": "Weaning of mice with feed comprising various local anesthetics (body weight)", "type": "in vivo", "procedure": "Litters of mice are weaned on day 18 after birth. The siblings are divided over 2 groups (placebo and active) with group sizes of 7-10 siblings.\nThe pups are offered daily ad libitum food in which a local anesthetic is mixed. Body weight is measured daily.\nIn TABLES I-IV the body weight is depicted as percentage increase on day 14 in comparison to baseline, as a result of dosing lidocaine (comparative), prilocaine (comparative), bupivacaine (comparative) and benzocaine (according to the invention) to the mice. The baseline is the weight of the mouse at the beginning of the experiment. Placebo and experimental scores are statistically compared by means of student-t tests (* p<0,05; ** p<0,01; *** p<0,001). Doses are indicated on the x-axis and are mg per day for the group of siblings."}, "[2]": {"assay": "Weaning of piglets with feed comprising various amounts of benzocaine", "type": "in vivo", "procedure": "Six groups of 21 piglets were treated.\nThey were fed with controlled amounts of feed (see table V).\nBefore administration, the food pellets were drenched in water for 30 min and benzocaine (0 g (3×), 5 g, 12,75 g or 17 g, corresponding to a dose of 0, 30, 75 and 100 mg per day per pig, respectively) was added and mixed. The group of piglets receiving feed with 0% benzocaine is referred to as the placebo group.\nAmounts of feed consumed were recorded. Piglets were weighed on day 1 (baseline), 4, and 8."}, "[3]": {"conditions": "cited from earlier work"}, "[4]": {"conditions": "mice weaned day 18, anesthetic mixed in ad libitum food, day 14 vs baseline"}, "[5]": {"conditions": "benzocaine treated pigs vs placebo group"}}, "note": "Where two headings read alike, the source gives them in different places.", "data": [{"smiles": "CCCCN1CCCCC1C(=O)Nc1c(C)cccc1C", "note": "(stereo not drawn) [bupivacaine]", "values": [{"measurement": "growth of the mice (body weight increase) in comparison to placebo", "setting": "[1]; [4]", "result": "either inactive (low dose) or inhibit the growth of the mice"}]}, {"smiles": "CCN(CC)CC(=O)Nc1c(C)cccc1C", "note": "[Lidocaine, lidocaine]", "values": [{"measurement": "growth of the mice (body weight increase) in comparison to placebo", "setting": "[1]; [4]", "result": "either inactive (low dose) or inhibit the growth of the mice"}]}, {"smiles": "CCOC(=O)c1ccc(N)cc1", "note": "[benzocaine]", "values": [{"measurement": "fouling and diarrhea", "setting": "[2]; [5]", "result": "less fouling and less diarrhea"}, {"measurement": "general condition of the pigs", "setting": "[2]; [5]", "result": "better than that of the placebo group"}, {"measurement": "feed intake relative to placebo", "setting": "[2]; piglets, after day 4, 30 mg and 75 mg benzocaine per day", "result": "increase feed intake"}, {"measurement": "growth of lightest vs heaviest 50% of the animals", "setting": "[2]; piglets, day 7, group analysis vs placebo", "result": "increase of growth in the benzocaine-fed group primarily takes place with the light weight animals"}, {"measurement": "feed intake relative to placebo", "setting": "[2]; piglets, first 3 days", "result": "initial reduction of the feed intake"}, {"measurement": "optimal dose", "setting": "[2]; piglets, per pig", "result": 75, "unit": "mg per day"}, {"measurement": "feed conversion (feed needed per weight gain)", "setting": "[2]; piglets, with increasing benzocaine dosing, placebo about 12,8 kg feed per 1 kg", "result": "2,6 kg of feed per 1 kg of meat"}, {"measurement": "solubility", "setting": "[3]; dilute acids", "result": "more soluble"}, {"measurement": "solubility", "setting": "[3]; ethanol, chloroform, and ethyl ether", "result": "very soluble"}, {"measurement": "solubility", "setting": "[3]; water", "result": "sparingly soluble"}, {"measurement": "growth of the mice (body weight increase) in comparison to placebo", "setting": "[1]; 200 mg per day for the group of siblings, day 14", "result": "inhibits the growth"}, {"measurement": "growth of the mice (body weight increase) in comparison to placebo", "setting": "[1]; low doses 25, 50 and 100 mg per day for the group of siblings, day 14", "result": "increases the growth"}]}, {"smiles": "CCCNC(C)C(=O)Nc1ccccc1C", "note": "(stereo not drawn) [prilocaine]", "values": [{"measurement": "growth of the mice (body weight increase) in comparison to placebo", "setting": "[1]; [4]", "result": "either inactive (low dose) or inhibit the growth of the mice"}]}]}
